In PubChem BioAssay AID1963432 (Molecular Pharmacology Branch, DTP, NCI, 2024):

Test system: SYO-1 complex spheroid growth, percent test/control
Experiment: Anticancer human tumor SYO-1 cell line growth inhibition [Asc];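 also: compound exposure lasted 7 days after spheroids grew 3 days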;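 as to viability, T/C: 100% = DMSO vehicle control viability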
Settings: for IC50: curve of first compound; for viability, T/C: stronger effect = lower value; active = viability on the fitted dose curve at most 10% of control; inactive = the rest
Procedure, shortened: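 Complex solid-tumor spheroids incorporating human endothelial and mesenchymal stem cells received single agents or combinations over half-log dilution ranges anchored to clinical Cmax.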

[1] = second compound 0.01 µM, first compound 0.0316 µM
[2] = second compound 0.01 µM, first compound 0.1 µM
[3] = second compound 0.01 µM, first compound 0.316 µM
[4] = second compound 0.01 µM, first compound 1 µM
[5] = second compound 0.0316 µM, first compound 0.0316 µM
[6] = second compound 0.0316 µM, first compound 0.1 µM
[7] = second compound 0.0316 µM, first compound 0.316 µM
[8] = second compound 0.0316 µM, first compound 1 µM
[9] = second compound 0.1 µM, first compound 0.0316 µM
[10] = second compound 0.1 µM, first compound 0.1 µM
[11] = second compound 0.1 µM, first compound 0.316 µM
[12] = second compound 0.1 µM, first compound 1 µM
[13] = second compound 0.316 µM, first compound 0.0316 µM
[14] = second compound 0.316 µM, first compound 0.1 µM
[15] = second compound 0.316 µM, first compound 0.316 µM
[16] = second compound 0.316 µM, first compound 1 µM
[17] = second compound 1 µM, first compound 0.0316 µM
[18] = second compound 1 µM, first compound 0.1 µM
[19] = second compound 1 µM, first compound 0.316 µM
[20] = second compound 1 µM, first compound 1 µM
[21] = second compound 0.01 µM, first compound 0.00316 µM
[22] = second compound 0.01 µM, first compound 0.01 µM
[23] = second compound 0.0316 µM, first compound 0.00316 µM
[24] = second compound 0.0316 µM, first compound 0.01 µM
[25] = second compound 0.1 µM, first compound 0.00316 µM
[26] = second compound 0.1 µM, first compound 0.01 µM
[27] = second compound 0.316 µM, first compound 0.00316 µM
[28] = second compound 0.316 µM, first compound 0.01 µM
[29] = second compound 1 µM, first compound 0.00316 µM
[30] = second compound 1 µM, first compound 0.01 µM

C=CC(=O)N1CCN(c2nc(=O)n(-c3c(C)ccnc3C(C)C)c3nc(-c4c(O)cccc4F)c(F)cc23)C(C)C1 (stereo not given) + CNC(C)C(=O)NC1CN(S(=O)(=O)c2cccc(S(=O)(=O)N3CCC4CCC(C(=O)NC(c5ccccc5)c5ccccc5)N4C(=O)C(NC(=O)C(C)NC)C3)c2)CCC2CCC(C(=O)NC(c3ccccc3)c3ccccc3)N2C1=O
inactive: viability, T/C [1] 104% | viability, T/C [2] 105% | viability, T/C [3] 101% | viability, T/C [4] 102% | viability, T/C (second compound 0.01 µM, first compound 3.16 µM) 90.3% | viability, T/C (second compound 0.01 µM, first compound 10 µM) 83.6% | viability, T/C [5] 97.4% | viability, T/C [6] 94.5% | viability, T/C [7] 99.4% | viability, T/C [8] 97.2% | viability, T/C (second compound 0.0316 µM, first compound 3.16 µM) 87.3% | viability, T/C (second compound 0.0316 µM, first compound 10 µM) 86.2% | viability, T/C [9] 88.3% | viability, T/C [10] 94.3% | viability, T/C [11] 100% | viability, T/C [12] 92.5% | viability, T/C (second compound 0.1 µM, first compound 3.16 µM) 98.1% | viability, T/C (second compound 0.1 µM, first compound 10 µM) 85.4% | viability, T/C [13] 96.6% | viability, T/C [14] 98% | viability, T/C [15] 97.5% | viability, T/C [16] 93.5% | viability, T/C (second compound 0.316 µM, first compound 3.16 µM) 87.4% | viability, T/C (second compound 0.316 µM, first compound 10 µM) 89.6% | viability, T/C [17] 98.1% | viability, T/C [18] 98.1% | viability, T/C [19] 93.1% | viability, T/C [20] 95.8% | viability, T/C (second compound 1 µM, first compound 3.16 µM) 93.5% | viability, T/C (second compound 1 µM, first compound 10 µM) 88%
> 10 µM: IC50 (second compound 0.01 µM) | IC50 (second compound 0.0316 µM) | IC50 (second compound 0.1 µM) | IC50 (second compound 0.316 µM) | IC50 (second compound 1 µM)

COc1c(OCCCN2CCOCC2)ccc2c3n(c(=NC(=O)c4cnc(N)nc4)nc12)CCN3 + CNC(C)C(=O)NC1CN(S(=O)(=O)c2cccc(S(=O)(=O)N3CCC4CCC(C(=O)NC(c5ccccc5)c5ccccc5)N4C(=O)C(NC(=O)C(C)NC)C3)c2)CCC2CCC(C(=O)NC(c3ccccc3)c3ccccc3)N2C1=O
> 1 µM: IC50 (second compound 0.01 µM) | IC50 (second compound 0.0316 µM) | IC50 (second compound 0.1 µM) | IC50 (second compound 0.316 µM) | IC50 (second compound 1 µM)
inactive: viability, T/C [21] 106% | viability, T/C [22] 109% | viability, T/C [1] 116% | viability, T/C [2] 106% | viability, T/C [3] 96% | viability, T/C [4] 68.3% | viability, T/C [23] 113% | viability, T/C [24] 126% | viability, T/C [5] 118% | viability, T/C [6] 110% | viability, T/C [7] 98.2% | viability, T/C [8] 72.9% | viability, T/C [25] 107% | viability, T/C [26] 119% | viability, T/C [9] 118% | viability, T/C [10] 107% | viability, T/C [11] 102% | viability, T/C [12] 68.7% | viability, T/C [27] 111% | viability, T/C [28] 122% | viability, T/C [13] 116% | viability, T/C [14] 105% | viability, T/C [15] 96.1% | viability, T/C [16] 69.2% | viability, T/C [29] 114% | viability, T/C [30] 124% | viability, T/C [17] 117% | viability, T/C [18] 113% | viability, T/C [19] 95.1% | viability, T/C [20] 73.3%

NC(=O)C(=Cn1cnc(-c2cc(C(F)(F)F)cc(C(F)(F)F)c2)n1)c1cncnc1 + CNC(C)C(=O)NC1CN(S(=O)(=O)c2cccc(S(=O)(=O)N3CCC4CCC(C(=O)NC(c5ccccc5)c5ccccc5)N4C(=O)C(NC(=O)C(C)NC)C3)c2)CCC2CCC(C(=O)NC(c3ccccc3)c3ccccc3)N2C1=O
inactive: viability, T/C (second compound 0.01 µM, first compound 0.000949 µM) 102% | viability, T/C (second compound 0.01 µM, first compound 0.003 µM) 101% | viability, T/C (second compound 0.01 µM, first compound 0.00949 µM) 111% | viability, T/C (second compound 0.01 µM, first compound 0.03 µM) 104% | viability, T/C (second compound 0.01 µM, first compound 0.0949 µM) 98% | viability, T/C (second compound 0.01 µM, first compound 0.3 µM) 47.1% | viability, T/C (second compound 0.0316 µM, first compound 0.000949 µM) 99.2% | viability, T/C (second compound 0.0316 µM, first compound 0.003 µM) 105% | viability, T/C (second compound 0.0316 µM, first compound 0.00949 µM) 106% | viability, T/C (second compound 0.0316 µM, first compound 0.03 µM) 108% | viability, T/C (second compound 0.0316 µM, first compound 0.0949 µM) 102% | viability, T/C (second compound 0.0316 µM, first compound 0.3 µM) 48.4% | viability, T/C (second compound 0.1 µM, first compound 0.000949 µM) 109% | viability, T/C (second compound 0.1 µM, first compound 0.003 µM) 106% | viability, T/C (second compound 0.1 µM, first compound 0.00949 µM) 102% | viability, T/C (second compound 0.1 µM, first compound 0.03 µM) 97.6% | viability, T/C (second compound 0.1 µM, first compound 0.0949 µM) 102% | viability, T/C (second compound 0.1 µM, first compound 0.3 µM) 42.6% | viability, T/C (second compound 0.316 µM, first compound 0.000949 µM) 103% | viability, T/C (second compound 0.316 µM, first compound 0.003 µM) 110% | viability, T/C (second compound 0.316 µM, first compound 0.00949 µM) 111% | viability, T/C (second compound 0.316 µM, first compound 0.03 µM) 105% | viability, T/C (second compound 0.316 µM, first compound 0.0949 µM) 105% | viability, T/C (second compound 0.316 µM, first compound 0.3 µM) 36.3% | viability, T/C (second compound 1 µM, first compound 0.000949 µM) 114% | viability, T/C (second compound 1 µM, first compound 0.003 µM) 106% | viability, T/C (second compound 1 µM, first compound 0.00949 µM) 111% | viability, T/C (second compound 1 µM, first compound 0.03 µM) 105% | viability, T/C (second compound 1 µM, first compound 0.0949 µM) 97.5% | viability, T/C (second compound 1 µM, first compound 0.3 µM) 23.6%
0.199 µM: IC50 (second compound 1 µM)
0.238 µM: IC50 (second compound 0.316 µM)
0.26 µM: IC50 (second compound 0.1 µM)
0.281 µM: IC50 (second compound 0.01 µM)
0.29 µM: IC50 (second compound 0.0316 µM)

NC1CCC(NC2CC2c2ccccc2)CC1 (stereo not given) + CNC(C)C(=O)NC1CN(S(=O)(=O)c2cccc(S(=O)(=O)N3CCC4CCC(C(=O)NC(c5ccccc5)c5ccccc5)N4C(=O)C(NC(=O)C(C)NC)C3)c2)CCC2CCC(C(=O)NC(c3ccccc3)c3ccccc3)N2C1=O
> 0.1 µM: IC50 (second compound 0.01 µM) | IC50 (second compound 0.0316 µM) | IC50 (second compound 0.1 µM) | IC50 (second compound 0.316 µM) | IC50 (second compound 1 µM)
inactive: viability, T/C (second compound 0.01 µM, first compound 0.000316 µM) 109% | viability, T/C (second compound 0.01 µM, first compound 0.001 µM) 104% | viability, T/C [21] 97.4% | viability, T/C [22] 89.4% | viability, T/C [1] 88.1% | viability, T/C [2] 86.2% | viability, T/C (second compound 0.0316 µM, first compound 0.000316 µM) 106% | viability, T/C (second compound 0.0316 µM, first compound 0.001 µM) 94% | viability, T/C [23] 89.7% | viability, T/C [24] 85.6% | viability, T/C [5] 87.5% | viability, T/C [6] 87.5% | viability, T/C (second compound 0.1 µM, first compound 0.000316 µM) 102% | viability, T/C (second compound 0.1 µM, first compound 0.001 µM) 92.5% | viability, T/C [25] 86.7% | viability, T/C [26] 91.3% | viability, T/C [9] 94.8% | viability, T/C [10] 91% | viability, T/C (second compound 0.316 µM, first compound 0.000316 µM) 99.8% | viability, T/C (second compound 0.316 µM, first compound 0.001 µM) 97.5% | viability, T/C [27] 90.5% | viability, T/C [28] 90.3% | viability, T/C [13] 86.6% | viability, T/C [14] 86.2% | viability, T/C (second compound 1 µM, first compound 0.000316 µM) 103% | viability, T/C (second compound 1 µM, first compound 0.001 µM) 99.1% | viability, T/C [29] 91.2% | viability, T/C [30] 89.6% | viability, T/C [17] 88.5% | viability, T/C [18] 86.4%
